Key:
MDA-MB-231 cells = assay: CyQuant cytotoxicity assay in MDA-MB-231 cells; type: cell-based; settings: 24 hrs, relative to rHSA-treated cells; nutlin 10 μM, ABT-263 2.5 μM (FIG. 13)
Method: (§2) Cytotoxicities were measured by CyQuant Assay and normalized according to rHSA-treated cells.

Hela cells = assay: CyQuant cytotoxicity assay in Hela cells; type: cell-based; settings: 24 hrs, relative to rHSA-treated cells; nutlin 10 μM, ABT-263 2.5 μM (FIG. 13)
Method: as §2

[1] = plasma protein; cited from earlier work
SJSA-1 cells [2] = assay: CyQuant cytotoxicity assay in SJSA-1 cells; type: cell-based; settings: 24 hrs, relative to rHSA-treated cells; nutlin 10 μM (FIG. 13)
Method: Osteosarcoma SJSA-1 cells (ATCC) were grown in RPMI media containing 10% FBS. Cytotoxicity assays were performed using SJSA-1 cells plated in 24- or 96-well plates at 20,000 or 5,000 cells per well, respectively. Cells were allowed to attach overnight. All treatments were added on day 2 in RPMI media containing 1% FBS plus the equivalent amounts of 1×PBS buffer. Unless otherwise indicated, cells were exposed to treatment media for 24 hours, at which time cytotoxicity was measured using the fluorometric CyQuant assay (Invitrogen, C35006) or the fluorometric Homogeneous Caspase assay (Roche, 03005372001), according to the manufacturer's instructions, for detection of apoptosis. All results were plotted relative to rHSA- or where indicated, rHSA/FA-FITC-treated cells.

MDM2 = assay: Western blot and densitometry of MDM2 protein in SJSA-1 cells; type: cell-based; settings: 10 μM, 24 hrs, densitometry
Method: (§1) SJSA-1 cells were lysed in buffer containing 20 mM Tris-HCl, 50 mM NaCl, 0.05% Triton X-100, and protease inhibitor cocktail. […] Mixtures were then allowed to incubate for 1 hour at RT.

p53 = assay: Western blot and densitometry of p53 protein in SJSA-1 cells; type: cell-based; settings: 10 μM, 24 hrs, densitometry
Method: as §1

SJSA-1 cells [3] = assay: Cell death on co-treatment with MTX in SJSA-1 cells; type: cell-based; settings: co-treatment with MTX versus single agents (FIG. 14A)
Method: As shown above, HSA-PMI may induce apoptosis by disrupting MDM2/MDMX-p53 interaction and/or by inducing the release of BAK from MCL-1 or BCL-Xl. […] To test this hypothesis, SJSA cells were treated with MTX alone, HSA-PMI/nutlin alone, or MTX and HSA-PMI/nutlin.

MDM2, sequence (Q00987 whole entry): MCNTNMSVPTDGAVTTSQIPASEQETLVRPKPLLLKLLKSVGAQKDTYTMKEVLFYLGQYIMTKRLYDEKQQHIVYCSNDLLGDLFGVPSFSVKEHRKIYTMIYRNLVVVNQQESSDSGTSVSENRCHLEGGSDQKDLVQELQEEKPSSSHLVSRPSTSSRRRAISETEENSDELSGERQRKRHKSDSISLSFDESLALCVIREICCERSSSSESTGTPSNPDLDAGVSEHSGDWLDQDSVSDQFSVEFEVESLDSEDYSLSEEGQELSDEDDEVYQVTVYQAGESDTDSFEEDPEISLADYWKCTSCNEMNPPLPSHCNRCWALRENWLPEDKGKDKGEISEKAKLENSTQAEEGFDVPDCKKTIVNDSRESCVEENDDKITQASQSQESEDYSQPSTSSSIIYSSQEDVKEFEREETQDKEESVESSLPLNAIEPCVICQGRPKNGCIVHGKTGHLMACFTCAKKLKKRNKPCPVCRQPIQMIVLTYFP

In the case of `CC1(C)CCC(c2ccc(Cl)cc2)=C(CN2CCN(c3ccc(C(=O)NS(=O)(=O)c4ccc(N[C@H](CCN5CCOCC5)CSc5ccccc5)c(S(=O)(=O)C(F)(F)F)c4)cc3)CC2)C1` [ABT-263], the “cell death in MDA-MB-231 cells (p53 negative)” value (MDA-MB-231 cells) is reported as “killed” and the “cell death in Hela cells (p53 under-expressing)” value (Hela cells) is reported as “killed”.

In the case of “HSA: human serum albumin, the most abundant plasma protein”, the average half-life [1] is listed as 19 days.

For nutlin, the “cell death in SJSA-1 cells (p53 positive)” value (SJSA-1 cells [2]) was “killed”, the “change in MDM2 protein expression” value (MDM2) was 5 fold and the “increase in p53 protein” value (p53) was 11.5 fold. The “cell death in combination with MTX” value (SJSA-1 cells [3]) was “not additive”.

Reference: patent US10053498B2, “Compositions comprising serum albumin and p53 peptides fusion proteins” (University of the Sciences of Philadelphia, priority 2014, dated 2018)
